pIC50, pKi: −log10 of the molar value. Converted amounts (≈) assume the structure as drawn.
Columns and labels:
[1] = biological target: T1, Prostaglandin E2 receptor EP3 subtype (Homo sapiens, UniProt P43115); assay: Antagonist activity at human EP3c receptor expressed in human U2OS cells assessed as inhibition of PGE2-induced calcium mobilization after 24 hrs by FLIPR assay; format: functional, cell-based
T1 sequence (P43115 whole entry): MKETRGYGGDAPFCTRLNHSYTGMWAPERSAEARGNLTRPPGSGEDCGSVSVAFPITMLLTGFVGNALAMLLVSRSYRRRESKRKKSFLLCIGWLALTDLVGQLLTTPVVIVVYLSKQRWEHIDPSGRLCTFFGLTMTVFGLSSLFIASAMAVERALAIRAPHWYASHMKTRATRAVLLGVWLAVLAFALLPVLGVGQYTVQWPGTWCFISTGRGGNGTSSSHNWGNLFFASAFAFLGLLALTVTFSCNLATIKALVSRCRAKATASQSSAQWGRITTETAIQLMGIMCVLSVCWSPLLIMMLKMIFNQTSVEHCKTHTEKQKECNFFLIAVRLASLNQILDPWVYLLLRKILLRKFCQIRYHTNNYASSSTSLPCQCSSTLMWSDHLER

[2] = Drug metabolism in rat liver S9 fraction assessed as NADPH-dependent glutathione conjugate level at 10 uM after 30 mins by LC-MS/MS analysis; format: ADME, subcellular; details: s9, 0.5 h
[3] = Drug metabolism in rat liver S9 fraction assessed as glutathione conjugate level at 10 uM after 30 mins by HPLC in absence of NADPH; format: ADME, subcellular; details: s9, 0.5 h
[4] = biological target: T2, Prostaglandin E2 receptor EP3 subtype (Rattus norvegicus, UniProt P34980); assay: Antagonist activity at rat EP3 receptor expressed in human U2OS cells co-expressing Gqi5 assessed as inhibition of PGE2-induced response after 24 hrs by FLIPR assay; format: functional, cell-based
T2 sequence (P34980 whole entry): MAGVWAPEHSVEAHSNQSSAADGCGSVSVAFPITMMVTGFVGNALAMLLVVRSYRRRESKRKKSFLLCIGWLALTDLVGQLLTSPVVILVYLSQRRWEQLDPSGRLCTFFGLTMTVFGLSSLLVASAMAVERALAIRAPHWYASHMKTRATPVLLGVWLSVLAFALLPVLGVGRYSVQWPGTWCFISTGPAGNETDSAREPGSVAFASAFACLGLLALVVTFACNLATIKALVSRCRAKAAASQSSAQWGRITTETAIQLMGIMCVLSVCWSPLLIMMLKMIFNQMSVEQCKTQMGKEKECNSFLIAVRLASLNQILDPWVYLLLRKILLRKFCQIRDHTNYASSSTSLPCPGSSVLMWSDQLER

[5] = Half life in Sprague-Dawley rat at 1 mg/kg, iv; format: ADME, organism-based; design: dose 1 mg/kg, route intravenous; details: in vivo
[6] = Drug metabolism in human liver S9 fraction assessed as NADPH-dependent glutathione conjugate level at 10 uM after 30 mins by LC-MS/MS analysis; format: ADME, subcellular; details: s9, 0.5 h
[7] = Drug metabolism in human liver S9 fraction assessed as glutathione conjugate level at 10 uM after 30 mins by HPLC in absence of NADPH; format: ADME, subcellular; details: s9, 0.5 h
[8] = Oral bioavailability in Sprague-Dawley rat at 2 mg/kg; format: ADME, organism-based; details: in vivo
Rattus norvegicus = assay: Dose-normalized AUC in Sprague-Dawley rat at 2 mg/kg, po; format: ADME, organism-based; design: dose 2 mg/kg, route oral; details: in vivo
[9] = Clearance in Sprague-Dawley rat at 1 mg/kg, iv and 2 mg/kg, po; format: ADME, organism-based; details: in vivo
Cytochrome P450 1A2 = biological target: T3, Cytochrome P450 1A2 (Homo sapiens, UniProt P05177); assay: Inhibition of CYP1A2; format: ADME
T3 sequence (P05177 whole entry): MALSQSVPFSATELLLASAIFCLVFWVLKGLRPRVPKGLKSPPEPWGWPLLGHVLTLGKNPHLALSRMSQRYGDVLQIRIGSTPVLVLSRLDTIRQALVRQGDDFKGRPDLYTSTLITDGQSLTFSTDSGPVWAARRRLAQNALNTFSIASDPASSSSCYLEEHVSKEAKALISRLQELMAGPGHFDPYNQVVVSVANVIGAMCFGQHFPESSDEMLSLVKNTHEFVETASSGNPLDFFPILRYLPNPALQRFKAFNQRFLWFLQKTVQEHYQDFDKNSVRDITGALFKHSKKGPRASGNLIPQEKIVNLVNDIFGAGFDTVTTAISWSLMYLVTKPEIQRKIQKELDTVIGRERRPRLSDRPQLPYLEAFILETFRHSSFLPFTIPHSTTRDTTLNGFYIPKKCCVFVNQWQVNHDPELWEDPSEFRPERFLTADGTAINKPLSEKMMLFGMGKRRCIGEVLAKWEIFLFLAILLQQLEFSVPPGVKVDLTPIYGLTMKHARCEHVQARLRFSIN

[10] = biological target: T1, Prostaglandin E2 receptor EP3 subtype; assay: Binding affinity to human EP3
[11] = biological target: Prostaglandin E2 receptor EP4 subtype (Homo sapiens, UniProt P35408); assay: Binding affinity at human EP4 receptor
Cytochrome P450 3A4 = Cytochrome P450 3A4 (Homo sapiens, UniProt P08684); assay: Inhibition of CYP3A4; format: ADME
[12] = biological target: T4, Prostaglandin G/H synthase 2 (Rattus norvegicus, UniProt P35355); assay: Inhibition of COX2 in rat whole blood assessed as decreased PGE2 production; format: tissue-based
T4 sequence (P35355 whole entry): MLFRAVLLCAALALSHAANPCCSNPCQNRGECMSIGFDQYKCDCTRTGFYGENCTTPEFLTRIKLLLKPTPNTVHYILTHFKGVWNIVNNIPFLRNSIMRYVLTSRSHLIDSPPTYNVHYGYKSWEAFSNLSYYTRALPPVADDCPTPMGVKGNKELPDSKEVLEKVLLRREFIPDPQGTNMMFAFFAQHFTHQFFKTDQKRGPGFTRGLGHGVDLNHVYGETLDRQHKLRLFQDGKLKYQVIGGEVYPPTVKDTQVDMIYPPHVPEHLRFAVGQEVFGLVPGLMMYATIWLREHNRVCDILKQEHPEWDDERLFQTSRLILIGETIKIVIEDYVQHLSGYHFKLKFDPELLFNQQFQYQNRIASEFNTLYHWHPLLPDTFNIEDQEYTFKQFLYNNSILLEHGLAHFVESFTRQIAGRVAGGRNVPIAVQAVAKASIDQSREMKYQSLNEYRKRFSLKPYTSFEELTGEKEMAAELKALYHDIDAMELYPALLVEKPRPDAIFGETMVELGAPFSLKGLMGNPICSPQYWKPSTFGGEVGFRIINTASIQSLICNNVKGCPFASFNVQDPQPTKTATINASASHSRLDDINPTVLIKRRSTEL

[13] = biological target: Voltage-gated inwardly rectifying potassium channel KCNH2 (Homo sapiens, UniProt Q12809); assay: Inhibition of human ERG
[14] = biological target: T5, Prostaglandin D2 receptor (Homo sapiens, UniProt Q13258); assay: Binding affinity at human DP receptor
T5 sequence (Q13258 whole entry): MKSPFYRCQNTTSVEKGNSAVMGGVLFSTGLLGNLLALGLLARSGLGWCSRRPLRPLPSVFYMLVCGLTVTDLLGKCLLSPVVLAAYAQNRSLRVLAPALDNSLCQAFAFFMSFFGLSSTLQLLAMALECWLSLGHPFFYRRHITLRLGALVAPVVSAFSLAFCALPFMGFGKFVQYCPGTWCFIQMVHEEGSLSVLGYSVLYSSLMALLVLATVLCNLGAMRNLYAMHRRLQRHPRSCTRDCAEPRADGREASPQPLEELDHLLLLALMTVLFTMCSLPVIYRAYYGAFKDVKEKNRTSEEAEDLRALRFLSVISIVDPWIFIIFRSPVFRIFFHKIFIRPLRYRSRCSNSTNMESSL

[15] = biological target: T6, Prostaglandin G/H synthase 1 (Rattus norvegicus, UniProt Q63921); assay: Inhibition of COX1 in rat whole blood assessed as decreased PGE2 production; format: tissue-based
T6 sequence (Q63921 whole entry): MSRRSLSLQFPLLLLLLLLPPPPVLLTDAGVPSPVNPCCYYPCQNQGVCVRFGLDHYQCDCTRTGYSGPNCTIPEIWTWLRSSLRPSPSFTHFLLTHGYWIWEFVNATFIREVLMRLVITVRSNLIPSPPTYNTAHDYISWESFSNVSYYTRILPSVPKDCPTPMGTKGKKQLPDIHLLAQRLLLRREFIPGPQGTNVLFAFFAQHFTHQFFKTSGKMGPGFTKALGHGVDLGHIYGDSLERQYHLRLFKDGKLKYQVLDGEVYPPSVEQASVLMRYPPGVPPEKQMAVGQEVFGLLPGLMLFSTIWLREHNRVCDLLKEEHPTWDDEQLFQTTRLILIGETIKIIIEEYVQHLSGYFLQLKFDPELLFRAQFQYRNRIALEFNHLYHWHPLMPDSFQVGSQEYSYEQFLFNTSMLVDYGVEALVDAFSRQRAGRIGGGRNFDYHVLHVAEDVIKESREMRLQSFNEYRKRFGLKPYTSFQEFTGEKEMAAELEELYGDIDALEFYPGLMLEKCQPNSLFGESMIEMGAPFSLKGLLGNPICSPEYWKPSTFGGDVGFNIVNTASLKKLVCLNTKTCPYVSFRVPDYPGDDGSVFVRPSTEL

[16] = biological target: Prostaglandin F2-alpha receptor (Homo sapiens, UniProt P43088); assay: Antagonist activity at FP receptor in human U2OS cells expressing Gqi5 assessed as inhibition of PGE2-induced response after 48 hrs by FLIPR assay; format: functional, cell-based
Cytochrome P450 2C9 = Cytochrome P450 2C9 (Homo sapiens, UniProt P11712); assay: Inhibition of CYP2C9; format: ADME
Cytochrome P450 2D6 = Cytochrome P450 2D6 (Homo sapiens, UniProt P10635); assay: Inhibition of CYP2D6; format: ADME
Cytochrome P450 2C19 = Cytochrome P450 2C19 (Homo sapiens, UniProt P33261); assay: Inhibition of CYP2C19; format: ADME
[17] = biological target: T7, Prostaglandin E2 receptor EP1 subtype (Homo sapiens, UniProt P34995); assay: Antagonist activity at EP1 receptor in human U2OS cells expressing Gqi5 assessed as inhibition of PGE2-induced response after 24 hrs by FLIPR assay; format: functional, cell-based
T7 sequence (P34995 whole entry): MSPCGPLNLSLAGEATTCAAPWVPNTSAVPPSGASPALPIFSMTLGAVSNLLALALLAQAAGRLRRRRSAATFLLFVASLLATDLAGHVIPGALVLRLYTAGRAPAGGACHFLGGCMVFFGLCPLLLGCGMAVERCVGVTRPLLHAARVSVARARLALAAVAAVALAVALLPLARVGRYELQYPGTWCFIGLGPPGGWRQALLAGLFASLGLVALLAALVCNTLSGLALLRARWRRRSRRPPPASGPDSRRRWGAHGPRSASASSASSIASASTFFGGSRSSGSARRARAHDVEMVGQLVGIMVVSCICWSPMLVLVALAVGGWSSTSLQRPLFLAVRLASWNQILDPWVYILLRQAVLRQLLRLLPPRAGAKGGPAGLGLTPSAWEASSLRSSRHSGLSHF

[18] = Aqueous solubility of the compound; format: physicochemical; details: buffer
[19] = biological target: Prostaglandin E2 receptor EP2 subtype (Homo sapiens, UniProt P43116); assay: Antagonist activity against human EP2 receptor expressed in CHO-K1 cells assessed as inhibition of cAMP production after 4 hrs by FRET signal in LANCE assay; format: functional, cell-based
Chain of Prostaglandin E2 receptor EP2 subtype (P43116 whole entry): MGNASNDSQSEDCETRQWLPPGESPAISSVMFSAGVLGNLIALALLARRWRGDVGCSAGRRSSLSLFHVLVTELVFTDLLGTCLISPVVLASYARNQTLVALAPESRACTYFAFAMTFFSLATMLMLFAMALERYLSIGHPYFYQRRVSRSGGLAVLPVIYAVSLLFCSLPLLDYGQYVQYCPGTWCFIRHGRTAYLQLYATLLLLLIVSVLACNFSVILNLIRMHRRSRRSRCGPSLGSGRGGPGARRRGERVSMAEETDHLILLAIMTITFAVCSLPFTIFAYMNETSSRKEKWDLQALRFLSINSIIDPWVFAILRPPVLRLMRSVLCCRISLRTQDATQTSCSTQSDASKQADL

Chain of Cytochrome P450 2C9 (P11712 whole entry): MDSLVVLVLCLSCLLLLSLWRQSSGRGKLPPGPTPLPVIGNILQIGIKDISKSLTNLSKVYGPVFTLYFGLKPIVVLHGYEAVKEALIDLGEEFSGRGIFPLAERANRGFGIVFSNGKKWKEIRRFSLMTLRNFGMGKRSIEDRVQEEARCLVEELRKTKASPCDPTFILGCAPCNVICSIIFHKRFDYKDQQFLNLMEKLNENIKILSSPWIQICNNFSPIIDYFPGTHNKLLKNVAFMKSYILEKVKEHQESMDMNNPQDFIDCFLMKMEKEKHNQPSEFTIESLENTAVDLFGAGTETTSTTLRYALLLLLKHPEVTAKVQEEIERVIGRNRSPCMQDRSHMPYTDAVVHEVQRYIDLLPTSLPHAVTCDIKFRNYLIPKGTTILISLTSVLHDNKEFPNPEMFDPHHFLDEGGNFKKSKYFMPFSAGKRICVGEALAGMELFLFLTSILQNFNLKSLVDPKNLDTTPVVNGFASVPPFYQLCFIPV
Chain of Prostaglandin E2 receptor EP4 subtype (P35408 whole entry): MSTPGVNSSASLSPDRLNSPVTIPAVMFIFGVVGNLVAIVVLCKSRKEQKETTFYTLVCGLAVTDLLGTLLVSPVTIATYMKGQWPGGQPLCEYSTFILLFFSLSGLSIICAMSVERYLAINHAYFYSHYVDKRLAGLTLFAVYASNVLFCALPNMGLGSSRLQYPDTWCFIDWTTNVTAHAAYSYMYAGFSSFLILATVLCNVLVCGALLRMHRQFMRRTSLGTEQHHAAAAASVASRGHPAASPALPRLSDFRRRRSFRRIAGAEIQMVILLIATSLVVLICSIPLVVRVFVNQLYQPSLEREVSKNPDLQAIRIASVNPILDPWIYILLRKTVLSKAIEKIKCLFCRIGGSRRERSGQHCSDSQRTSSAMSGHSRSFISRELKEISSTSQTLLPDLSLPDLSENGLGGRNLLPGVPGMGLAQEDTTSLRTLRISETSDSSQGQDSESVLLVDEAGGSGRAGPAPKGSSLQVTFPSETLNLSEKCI
Chain of Cytochrome P450 3A4 (P08684 whole entry): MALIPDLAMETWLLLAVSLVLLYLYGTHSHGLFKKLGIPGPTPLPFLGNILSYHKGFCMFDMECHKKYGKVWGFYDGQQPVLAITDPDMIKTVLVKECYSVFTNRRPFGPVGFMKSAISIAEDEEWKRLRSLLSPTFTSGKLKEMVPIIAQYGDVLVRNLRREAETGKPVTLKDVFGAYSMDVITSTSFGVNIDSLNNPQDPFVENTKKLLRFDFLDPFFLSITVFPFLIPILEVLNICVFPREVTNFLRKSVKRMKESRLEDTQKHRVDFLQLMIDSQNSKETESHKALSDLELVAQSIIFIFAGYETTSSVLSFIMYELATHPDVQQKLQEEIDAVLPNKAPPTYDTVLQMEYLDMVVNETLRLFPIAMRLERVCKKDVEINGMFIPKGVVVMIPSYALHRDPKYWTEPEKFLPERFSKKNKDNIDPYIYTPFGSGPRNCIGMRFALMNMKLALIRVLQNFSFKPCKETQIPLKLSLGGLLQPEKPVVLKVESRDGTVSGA
Chain of Cytochrome P450 2C19 (P33261 whole entry): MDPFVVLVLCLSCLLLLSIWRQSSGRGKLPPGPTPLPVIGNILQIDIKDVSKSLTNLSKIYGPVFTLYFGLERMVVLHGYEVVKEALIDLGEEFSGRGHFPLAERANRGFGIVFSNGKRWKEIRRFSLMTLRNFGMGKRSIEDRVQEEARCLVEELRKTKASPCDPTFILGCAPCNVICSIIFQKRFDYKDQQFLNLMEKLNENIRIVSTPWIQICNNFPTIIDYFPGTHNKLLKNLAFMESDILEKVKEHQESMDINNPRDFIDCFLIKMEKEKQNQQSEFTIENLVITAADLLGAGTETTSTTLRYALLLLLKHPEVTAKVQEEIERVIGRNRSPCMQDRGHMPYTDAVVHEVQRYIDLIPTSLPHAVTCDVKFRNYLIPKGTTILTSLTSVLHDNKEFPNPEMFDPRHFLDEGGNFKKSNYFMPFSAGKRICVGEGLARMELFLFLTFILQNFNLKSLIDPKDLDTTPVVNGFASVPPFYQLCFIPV
Chain of Voltage-gated inwardly rectifying potassium channel KCNH2 (Q12809 whole entry): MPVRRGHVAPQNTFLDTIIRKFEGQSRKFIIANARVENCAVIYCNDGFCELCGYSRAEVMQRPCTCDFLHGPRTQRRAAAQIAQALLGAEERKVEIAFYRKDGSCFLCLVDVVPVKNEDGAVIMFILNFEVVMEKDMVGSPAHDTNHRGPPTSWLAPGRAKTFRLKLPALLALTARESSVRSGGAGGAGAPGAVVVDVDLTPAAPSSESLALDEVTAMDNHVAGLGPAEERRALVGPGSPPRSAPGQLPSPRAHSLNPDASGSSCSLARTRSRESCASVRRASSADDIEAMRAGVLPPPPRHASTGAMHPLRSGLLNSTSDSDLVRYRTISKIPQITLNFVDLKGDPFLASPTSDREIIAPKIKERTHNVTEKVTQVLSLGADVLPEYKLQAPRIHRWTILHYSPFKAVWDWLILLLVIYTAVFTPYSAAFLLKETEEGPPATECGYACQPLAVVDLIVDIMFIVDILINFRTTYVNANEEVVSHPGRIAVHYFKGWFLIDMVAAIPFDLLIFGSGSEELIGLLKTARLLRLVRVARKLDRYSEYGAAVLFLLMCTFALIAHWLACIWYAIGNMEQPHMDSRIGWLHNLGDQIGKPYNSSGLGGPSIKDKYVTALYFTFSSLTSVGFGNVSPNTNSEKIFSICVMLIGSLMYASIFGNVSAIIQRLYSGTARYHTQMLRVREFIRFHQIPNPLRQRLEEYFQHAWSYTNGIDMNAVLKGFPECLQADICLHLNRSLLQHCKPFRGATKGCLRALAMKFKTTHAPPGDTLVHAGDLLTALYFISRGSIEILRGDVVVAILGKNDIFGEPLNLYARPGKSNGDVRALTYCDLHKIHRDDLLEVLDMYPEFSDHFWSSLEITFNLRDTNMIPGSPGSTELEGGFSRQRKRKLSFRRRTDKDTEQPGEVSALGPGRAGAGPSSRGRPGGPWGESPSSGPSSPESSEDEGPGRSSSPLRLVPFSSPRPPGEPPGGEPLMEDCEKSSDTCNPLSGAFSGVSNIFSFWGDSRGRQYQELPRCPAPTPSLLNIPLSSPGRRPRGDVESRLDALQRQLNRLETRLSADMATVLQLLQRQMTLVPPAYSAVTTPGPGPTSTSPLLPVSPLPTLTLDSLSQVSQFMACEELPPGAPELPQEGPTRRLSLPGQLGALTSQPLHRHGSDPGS
Chain of Prostaglandin F2-alpha receptor (P43088 whole entry): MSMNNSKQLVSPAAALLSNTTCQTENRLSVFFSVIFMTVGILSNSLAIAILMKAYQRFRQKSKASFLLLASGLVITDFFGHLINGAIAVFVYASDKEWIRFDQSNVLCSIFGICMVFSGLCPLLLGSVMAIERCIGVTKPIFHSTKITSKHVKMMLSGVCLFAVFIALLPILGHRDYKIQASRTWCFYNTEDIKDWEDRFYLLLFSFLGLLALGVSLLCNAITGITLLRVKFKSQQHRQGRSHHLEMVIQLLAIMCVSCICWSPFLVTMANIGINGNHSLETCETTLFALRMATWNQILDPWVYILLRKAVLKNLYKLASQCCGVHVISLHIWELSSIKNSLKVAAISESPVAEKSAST
Chain of Cytochrome P450 2D6 (P10635 whole entry): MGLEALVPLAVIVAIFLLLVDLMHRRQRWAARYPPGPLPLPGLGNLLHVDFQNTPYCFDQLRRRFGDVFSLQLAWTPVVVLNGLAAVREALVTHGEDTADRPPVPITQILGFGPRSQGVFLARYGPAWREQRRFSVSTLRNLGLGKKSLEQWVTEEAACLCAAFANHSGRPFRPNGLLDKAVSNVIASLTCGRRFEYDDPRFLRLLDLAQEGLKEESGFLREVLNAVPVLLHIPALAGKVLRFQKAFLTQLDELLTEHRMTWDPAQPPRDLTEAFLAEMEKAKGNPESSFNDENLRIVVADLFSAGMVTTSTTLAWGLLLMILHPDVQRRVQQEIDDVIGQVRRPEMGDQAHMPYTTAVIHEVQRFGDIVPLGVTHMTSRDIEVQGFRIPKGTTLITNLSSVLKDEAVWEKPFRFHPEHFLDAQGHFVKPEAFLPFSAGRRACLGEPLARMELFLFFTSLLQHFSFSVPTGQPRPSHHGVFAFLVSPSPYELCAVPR

Row | pKi [1] | Drug metabolism [2] | Drug metabolism [3] | pKi [4] | half-life [5] [h] | Drug metabolism [6] | Drug metabolism [7] | bioavailability [8] [%] | AUC/dose (Rattus norvegicus) [µg·h/mL/mg/kg] | clearance [9] [mL/min/kg] | Structure (SMILES) | other results
1 | 8.20 | Not Active | Not Active | 8.10 | 4.2 | Not Active | Not Active | 80 | 3 | 4.5 | CC(C)C1(c2ccc(-c3ccc4c(ccn4C)c3)[nH]c2=O)OC(=O)NC1=O (stereo not drawn) | 
2 | 8.50 | Not Active | Not Active | 8.50 | 3.9 | Not Active | Not Active | 93 | 5.6 | 2.8 | CC(C)C1(c2ccc(-c3ccc4cccc(F)c4c3)[nH]c2=O)OC(=O)NC1=O (stereo not drawn) | 
3 | 8.00 | Active |  | 8.00 | 4 | Not Active |  | 83 | 5.5 | 2.6 | CC(C)C1(c2ccc(-c3ccc4ccccc4c3)[nH]c2=O)OC(O)=NC1=O (stereo not drawn) | pIC50 (Cytochrome P450 1A2): < 4.30; pKi [10]: 8.30; pIC50 [11]: < 4.30; pIC50 (Cytochrome P450 3A4): < 4.30; pIC50 [12]: < 4.00; pIC50 [13]: < 4.30; pIC50 [14]: < 4.30; pIC50 [15]: < 4.00; pIC50 [16]: < 4.30; pIC50 (Cytochrome P450 2C9): < 4.30; pIC50 (Cytochrome P450 2D6): < 4.30; pIC50 (Cytochrome P450 2C19): < 4.30; pKi [17]: < 4.30; solubility [18]: 193 µM (≈ 69.9 µg/mL); pIC50 [19]: < 4.30

Reference: ChEMBL document CHEMBL2034937, “Novel 3-Oxazolidinedione-6-aryl-pyridinones as Potent, Selective, and Orally Active EP3 Receptor Antagonists” (ACS Med Chem Lett, 2010)
